Where two headings read alike, the source gives them in different places. Non-standard residues stand in square brackets, D forms with d. Residues, ends and D or L forms follow the SMILES beside them. *: point of attachment. Biotin = O=C1N[C@H]2[C@H](CS[C@H]2CCCCC(=O)*)N1; pS = N[C@@H](COP(=O)(O)O)C(=O)O
Biological target: T1, Recombinant S. cerevisiae Ess1 protein (Saccharomyces cerevisiae, UniProt P22696)
T1 construct: made in house; host or cells: Escherichia coli
T1 sequence (P22696 1-170): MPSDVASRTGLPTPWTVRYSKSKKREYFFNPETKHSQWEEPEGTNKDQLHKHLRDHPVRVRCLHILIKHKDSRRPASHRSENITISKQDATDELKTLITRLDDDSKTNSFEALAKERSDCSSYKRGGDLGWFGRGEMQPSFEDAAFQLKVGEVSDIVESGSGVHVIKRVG
Test: Biolayer interferometry (BLI) kinetic assays of Ess1/peptide binding
Settings: for Ess1 binding (in words) / Kd / kon: BLI; for Ess1 binding (in words): Ess1 3, 10, 30 μM, Figure 6, S1, S3; for kon: slope of kobs vs Ess1 concentration (Fig. S2), read-out: ka (association rate); for koff: read-out: kd (dissociation rate)
Experimental: Biolayer interferometry (BLI) was measured at 24° with an Octet RED system (FortéBio), essentially as described ([Shah and Duncan 2013]; [Shah et al. 2013]). Peptides were synthesized with N-terminal biotinylation (NEOBioLab). Phosphoserine residues were incorporated during synthesis and all peptides were purified to >95% purity by high-performance liquid chromatography (NEOBioLab). Each peptide included 4-6 N-terminal residues (typically [Gly-Gly-Ser]2) as a flexible linker to facilitate binding of Ess1 protein to the surface-immobilized peptide. BLI assays were carried out in 20 mM Tris-HCl pH 8.0, 1 mg/mL bovine serum albumin (Sigma-Aldrich; A6003-10G). Different peptides were immobilized on separate streptavidin-coated biosensors (FortéBio; cat. no. 18-5019). For each peptide sequence, sensors loaded with phosphorylated or unphosphorylated peptides were assayed in parallel, and the peptide concentrations (50−200 nM) and time of loading were controlled to achieve essentially the same level of peptide signal loaded, regardless of phosphorylation status (e.g., Figure S1). Recombinant S. cerevisiae Ess1 protein was purified from Escherichia coli as described ([Li et al. 2005]). Ess1 was incubated with peptide-loaded and control (no peptide) biosensors to measure kinetics of Ess1/peptide association, and sensors were moved to buffer alone to measure dissociation kinetics. To correct for low but significant nonspecific binding of Ess1 to sensors, data from a sensor without peptide within the same experiment were subtracted for each concentration of Ess1 used. For direct comparison of Ess1 binding to different peptides (Figure 6), signals were normalized for the levels of sensor-loaded peptide (0.2−0.5 nm) between sequential runs within the experiment. Data were analyzed using FortéBio Data Analysis software (Versions 6.4), and by linear and nonlinear regression in Prism (GraphPad, version 4).
To determine whether Ess1 interacts directly with Swi6 and Whi5, we conducted binding assays by using purified Ess1 protein and phospho-Ser-Pro or Ser-Pro peptides corresponding to the NLS motif of Swi6 and both NLS and NES motifs of Whi5. Binding was assayed using BLI ([Shah and Duncan 2013]). In brief, biotinylated peptides corresponding to the NLS or NES motifs were immobilized on streptavidin-coated sensors and binding of purified Ess1 protein was measured using BLI. Ess1 protein binding to immobilized peptide changes the optical interference at the sensor surface, measured as nm of spectral shift. Using this approach, we monitored the kinetics of binding and dissociation of Ess1. […] Binding was dependent on Ess1 concentration (3, 10, and 30 μM were used).
Figure 6 In vitro binding of Ess1 to Swi6 and Whi5 peptides. Kinetics for binding and dissociation of purified Ess1 protein with NLS and NES peptides were monitored using biolayer interferometry (BLI). Sensor-immobilized peptides: (A) carboxy-terminal domain (CTD) of RNA polymerase II (RNAPII), (B) Swi6-NLS, (C) Whi5-NLS, and (D) Whi5-NES. Data for phosphorylated peptides (P) are shown in black, unphosphorylated peptides (Un) in blue, and fitting curves are shown in red. Biotinylated peptides were loaded on individual streptavidin sensors, followed by a wash to remove unbound peptide. To measure Ess1 binding, sensors were transferred from buffer alone to buffer containing 3, 10, or 30 μM Ess1 protein (time zero) as indicated. After 300 sec, sensors were transferred to fresh buffer (without Ess1) to monitor Ess1 dissociation. Examples of raw data for these experiments, including the peptide-loading step and control sensors with no peptide are shown in Figure S1.
Table S4 Fitting Results for BLI Kinetic Assays
Peptide ka (M-1s-1) ±SD kd (s-1) ±SD %Rmax ±SD
Summary of results for fitting curves of BLI kinetic data (Fig. 6). The dissociation rate (kd) is an average (±standard deviation
(SD)) for fits at 3 concentrations of each peptide (3, 10, 30 µM). […]

[1] = estimated from binding isotherm F = E/(E + Kapp) with signal at 30 μM Ess1 relative to saturated signal of the cognate phosphorylated peptide, read-out: Kapp (estimated, unphosphorylated peptides)
[2] = 24°, 20 mM Tris-HCl pH 8.0, 1 mg/mL BSA, plateau binding responses vs Ess1 concentration (3, 10, 30 μM) fit to hyperbolic binding isotherm, read-out: KappEq (Equilibrium)

Molecule | Ess1 binding (in words) | Kd [1] [µM] | Kd [2] [µM] | kon [M⁻¹ s⁻¹] | koff [s⁻¹]
C[C@@H](O)[C@H](NC(=O)[C@@H]1CCCN1C(=O)[C@H](CO)NC(=O)[C@H](Cc1ccc(O)cc1)NC(=O)[C@H](CO)NC(=O)CNC(=O)CNC(=O)[C@H](CO)NC(=O)CNC(=O)CNC(=O)CCCC[C@@H]1SC[C@@H]2NC(=O)N[C@@H]21)C(=O)N[C@@H](CO)C(=O)N1CCC[C@H]1C(=O)N[C@@H](CO)C(=O)N[C@@H](Cc1ccc(O)cc1)C(=O)N[C@@H](CO)C(=O)O [CTD, reference compound] (Biotin-GGSGGSYSPTSPSYS-OH; N-terminus and C-terminus assumed) | very little binding | > 300 | – | – | –
C[C@@H](O)[C@H](NC(=O)[C@@H]1CCCN1C(=O)[C@H](CO)NC(=O)[C@H](Cc1ccc(O)cc1)NC(=O)[C@H](CO)NC(=O)CNC(=O)CNC(=O)[C@H](CO)NC(=O)CNC(=O)CN)C(=O)N[C@@H](COP(=O)(O)O)C(=O)N1CCC[C@H]1C(=O)N[C@@H](CO)C(=O)N[C@@H](Cc1ccc(O)cc1)C(=O)N[C@@H](CO)C(=O)O [CTD-P, reference compound] (H-GGSGGSYSPT[pS]PSYS-OH) | – | – | 1.65 ± 0.06 | 27100 | 0.0923
CC(C)C[C@H](NC(=O)[C@H](CCC(=O)O)NC(=O)[C@H](CCCNC(=N)N)NC(=O)[C@H](CO)NC(=O)CNC(=O)CNC(=O)[C@H](CO)NC(=O)CNC(=O)CN)C(=O)NCC(=O)N[C@@H](COP(=O)(O)O)C(=O)N1CCC[C@H]1C(=O)N[C@@H](CC(C)C)C(=O)N[C@@H](CCCCN)C(=O)N[C@@H](CCCCN)C(=O)O [Swi6-NLS-P] (H-GGSGGSRELG[pS]PLKK-OH) | – | – | 10.1 ± 5.1 | 25100 | 0.254
CC(C)C[C@H](NC(=O)[C@H](CCC(=O)O)NC(=O)[C@H](CCCNC(=N)N)NC(=O)[C@H](CO)NC(=O)CNC(=O)CNC(=O)[C@H](CO)NC(=O)CNC(=O)CNC(=O)CCCC[C@@H]1SC[C@@H]2NC(=O)N[C@@H]21)C(=O)NCC(=O)N[C@@H](CO)C(=O)N1CCC[C@H]1C(=O)N[C@@H](CC(C)C)C(=O)N[C@@H](CCCCN)C(=O)N[C@@H](CCCCN)C(=O)O [Swi6-NLS] (Biotin-GGSGGSRELGSPLKK-OH; N-terminus and C-terminus assumed) | – | > 100 | – | – | –
CC(C)C[C@H](NC(=O)[C@H](CCCNC(=N)N)NC(=O)[C@@H]1CCCN1C(=O)[C@H](COP(=O)(O)O)NC(=O)[C@@H]1CCCN1C(=O)[C@H](COP(=O)(O)O)NC(=O)[C@H](CC(C)C)NC(=O)[C@H](Cc1ccccc1)NC(=O)CNC(=O)CNC(=O)[C@H](CO)NC(=O)CNC(=O)CN)C(=O)N[C@@H](CCCNC(=N)N)C(=O)N[C@@H](COP(=O)(O)O)C(=O)N1CCC[C@H]1C(=O)N1CCC[C@H]1C(=O)N[C@H](C(=O)O)[C@@H](C)O [Whi5-NES-P] (H-GGSGGFL[pS]P[pS]PRLR[pS]PPT-OH) | – | – | 1.13 ± 0.18 | 17500 | 0.0503
CC(C)C[C@H](NC(=O)[C@H](CCCNC(=N)N)NC(=O)[C@@H]1CCCN1C(=O)[C@H](CO)NC(=O)[C@@H]1CCCN1C(=O)[C@H](CO)NC(=O)[C@H](CC(C)C)NC(=O)[C@H](Cc1ccccc1)NC(=O)CNC(=O)CNC(=O)[C@H](CO)NC(=O)CNC(=O)CNC(=O)CCCC[C@@H]1SC[C@@H]2NC(=O)N[C@@H]21)C(=O)N[C@@H](CCCNC(=N)N)C(=O)N[C@@H](CO)C(=O)N1CCC[C@H]1C(=O)N1CCC[C@H]1C(=O)N[C@H](C(=O)O)[C@@H](C)O [Whi5-NES] (Biotin-GGSGGFLSPSPRLRSPPT-OH; N-terminus and C-terminus assumed) | – | > 1500 | – | – | –
CC[C@H](C)[C@H](NC(=O)CNC(=O)[C@@H]1CCCN1C(=O)[C@@H]1CCCN1C(=O)[C@H](COP(=O)(O)O)NC(=O)[C@@H]1CCCN1C(=O)[C@@H]1CCCN1C(=O)[C@H](COP(=O)(O)O)NC(=O)[C@@H]1CCCN1C(=O)[C@@H](NC(=O)CNC(=O)CNC(=O)[C@H](CO)NC(=O)CNC(=O)CN)[C@@H](C)O)C(=O)O [Whi5-NLS-P] (H-GGSGGTP[pS]PP[pS]PPGI-OH) | – | – | 0.48 ± 0.46 | 22800 | 0.0722
CC[C@H](C)[C@H](NC(=O)CNC(=O)[C@@H]1CCCN1C(=O)[C@@H]1CCCN1C(=O)[C@H](CO)NC(=O)[C@@H]1CCCN1C(=O)[C@@H]1CCCN1C(=O)[C@H](CO)NC(=O)[C@@H]1CCCN1C(=O)[C@@H](NC(=O)CNC(=O)CNC(=O)[C@H](CO)NC(=O)CNC(=O)CNC(=O)CCCC[C@@H]1SC[C@@H]2NC(=O)N[C@@H]21)[C@@H](C)O)C(=O)O [Whi5-NLS] (Biotin-GGSGGTPSPPSPPGI-OH; N-terminus and C-terminus assumed) | – | > 25 | – | – | –
H3 aa1-21 (Ser10-P): "nonsubstrate" peptide (H3 aa1-21) in the phosphorylated form (Ser10-P) [reference compound] | did not bind | – | – | – | –
H3 aa1-21 unphosphorylated: "nonsubstrate" peptide (H3 aa1-21) in the unphosphorylated form [reference compound] | did not bind | – | – | – | –

— PMC3962490, “The Yeast Ess1 Prolyl Isomerase Controls Swi6 and Whi5 Nuclear Localization” (G3: Genes|Genomes|Genetics, 2014)
